Data reported in patent US9603896B2, “Peptide compounds and methods of production and use thereof” (priority 2012, dated 2017).

Test system: cytokines in mouse cornea
Experiment: Cytokines in corneal lysates after intrastromal injection (MILLIPLEX MAP mouse cytokine assay)
Format: in vivo
Conditions: intrastromal 0.5 μl, 10^−4, 10^−5, 10^−6 M; 24 and 48 hours
Procedure: Corneas were injected intrastromally with 0.5 μl of peptide 95-122 at a final concentration of 10^−4 M, 10^−5 M, and 10^−6 M and vehicle (saline) control. Corneas were collected and flash frozen at 24 hours and 48 hours. Corneal lysates were analyzed for cytokines using the MILLIPLEX® MAP mouse cytokine assay for IL-7(A), IL-15 (B), IFN-γ (C), MIP1-α (D) (EMD Millipore Corp., Billerica, Mass.). The means of independent experimental values are shown ±SEM. ***P<0.001, **P<0.01, *P<0.05 by unpaired t-test as compared to vehicle treated controls. […] Corneas were injected intrastromally with 0.5 μl of peptide 95-122 at a final concentration of 10^−4 M, 10^−5 M, and 10^−6 M and vehicle (saline) control. Corneas were collected and flash frozen at 24 hours and 48 hours. Corneal lysates were analyzed for cytokines using the MILLIPLEX® MAP mouse cytokine assay for MIP1-β (EMD Millipore Corp., Billerica, Mass.). **P<0.01, *P<0.05 by unpaired t-test as compared to vehicle treated controls. […] Corneas were injected intrastromally with 0.5 μl of peptide 95-122 at a final concentration of 10^−4 M, 10^−5 M, and 10^−6 M and vehicle (saline) control. Corneas were collected and flash frozen at 24 hours and 48 hours. Corneal lysates were analyzed for cytokines using the MILLIPLEX® MAP mouse cytokine assay for KC (A), IL-1β (B), and GM-CSF (C) (EMD Millipore Corp., Billerica, Mass.). **P<0.01, *P<0.05 by unpaired t-test as compared to vehicle treated controls.

LDREANLTSSVTILPLPLQNATVEAGTR (listed as Homo sapiens) [Peptide 95-122]
significantly increases: GM-CSF in corneal lysates | IFN-γ in corneal lysates | IL-1β in corneal lysates | IL-7 in corneal lysates | IL-15 in corneal lysates | KC in corneal lysates | MIP1-13 in corneal lysates | MIP1-α in corneal lysates
